According to US9145351B2, “Azole derivatives, methods for producing the same, intermediate thereof, agro-horticultural agents” (KUREHA CORPORATION, priority 2009, dated 2015):
Like-named read-outs stand apart in the source and are kept apart here.

How the values were obtained:
Assay type in all cases: cell-based
Rhynchosporium secalis = test: Plate medium fungicidal assay, barley leaf blotch R.sec (Experimental Example 5); conditions: Rhynchosporium secalis
Outline: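 Compound in DMSO mixed into PDA plate medium at 50 mg/L and 5 mg/L; 4 mm mycelial plug of the fungus inoculated. Colony diameter compared with untreated plates gives % mycelial growth inhibition R=100(dc−dt)/dc, scored on a 5-grade scale.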

Cladosporium sp. = test: Plate medium assay, industrial material deteriorating microorganism, Cladosporium (Experimental Example 5); conditions: treatment at 50 mg/l, PDA plate medium, read-out: growth inhibition grade
Procedure: (§1) In this Experimental Example, the fungicidal effects of the inventive compounds on various phytopathogenic fungi for plants and hazardous microorganism for industrial materials were examined by the methods described below. Each inventive compound was dissolved in 2 ml of dimethyl sulfoxide. 0.6 ml of this solution was added to 60 nil of a PDA medium (potato dextrose agar medium) at about 60 degrees C., which was mixed thoroughly in a 100-ml conical flask, and poured into a dish, where it was solidified, thereby obtaining a plate medium containing the inventive compound at 50 mg/L and 5 mg/L. On the other hand, a subject microorganism previously cultured on a plate medium was cut out using a cork borer whose diameter was 4 mm, and inoculated to the test compound-containing plate medium described above. […] The growth degree of the microorganism on the test compound-containing plate medium thus observed was compared with the growth degree of the microorganism in the untreated group, and % mycelial growth inhibition was calculated by the following equation. R=100(dc-dt)/dc wherein R=% mycelial extension inhibition, dc=flora diameter in untreated plate, dt=flora diameter in treated plate. The results obtained as described above were evaluated as one of the 5 grades according to the following criteria.

Fusarium oxysporum = test: Plate medium fungicidal assay, cucumber fusarium wilt F.c (Experimental Example 5); conditions: Fusarium oxysporum
Outline: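 Compound in DMSO mixed into PDA agar to give plates at 50 mg/L and 5 mg/L, then inoculated with 4 mm mycelial plug. Colony diameter compared with untreated plate as % mycelial growth inhibition, R=100(dc−dt)/dc, then scored on a 5-grade scale.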

Alternaria alternata = test: Plate medium fungicidal assay, Alternaria blotch A.m (Experimental Example 5); conditions: Alternaria alternata
Outline: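 Compound dissolved in DMSO and mixed into PDA plates at 50 mg/L and 5 mg/L; 4 mm mycelial plug inoculated. Colony diameter compared with untreated plates, % mycelial growth inhibition = 100(dc−dt)/dc, converted to one of 5 grades.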

Curvularia sp. = test: Plate medium assay, industrial material deteriorating microorganism, Curvularia (Experimental Example 5); conditions: treatment at 50 mg/l, PDA plate medium, read-out: growth inhibition grade
Procedure: as §1

[1] = tested on: Pseudocercoporella herpotrichoides; test: Plate medium fungicidal assay, wheat eye spot P.h (Experimental Example 5)
Outline: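 Compound in DMSO mixed into PDA agar for plates at 50 mg/L and 5 mg/L, inoculated with a 4 mm mycelial plug of Pseudocercosporella herpotrichoides. Colony diameter compared with untreated plates: % mycelial growth inhibition = 100(dc−dt)/dc, scored on a 5-grade scale.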

Coriolus versicolor = test: Plate medium assay, wood denaturing microorganism Kawaratake (Experimental Example 5); conditions: Trametes versicolor; treatment at 50 mg/l, PDA plate medium; read-out: growth inhibition grade
Procedure: as §1

Aureobasidium sp. = test: Plate medium assay, industrial material deteriorating microorganism, Aureobasidium (Experimental Example 5); conditions: treatment at 50 mg/l, PDA plate medium, read-out: growth inhibition grade
Procedure: as §1

Pyricularia oryzae = test: microbe, parasite or virus in culture; conditions: Pyricularia oryzae
[2] = plate medium, 5 mg/L, read-out: growth inhibition grade R.sec
[3] = plate medium, 50 mg/L, read-out: growth inhibition grade R.sec
[4] = plate medium, 5 mg/L, read-out: growth inhibition grade F.c
[5] = plate medium, 50 mg/L, read-out: growth inhibition grade F.c
[6] = plate medium, 5 mg/L, read-out: growth inhibition grade A.m
[7] = plate medium, 50 mg/L, read-out: growth inhibition grade A.m
[8] = plate medium, 5 mg/L, read-out: growth inhibition grade P.h
[9] = plate medium, 50 mg/L, read-out: growth inhibition grade P.h
[10] = read-out: growth inhibition grade P.o
[11] = plate medium containing compound at 5 mg/L, read-out: Growth inhibition grade, R.sec
[12] = plate medium containing compound at 50 mg/L, read-out: Growth inhibition grade, R.sec
[13] = plate medium containing compound at 5 mg/L, read-out: Growth inhibition grade, F.c
[14] = plate medium containing compound at 50 mg/L, read-out: Growth inhibition grade, F.c
[15] = plate medium containing compound at 5 mg/L, read-out: Growth inhibition grade, A.m
[16] = plate medium containing compound at 50 mg/L, read-out: Growth inhibition grade, A.m
[17] = plate medium containing compound at 5 mg/L, read-out: Growth inhibition grade, P.h
[18] = plate medium containing compound at 50 mg/L, read-out: Growth inhibition grade, P.h
[19] = read-out: Growth inhibition grade, P.o

Structure (SMILES)	inhibition at 5 µg/mL (Rhynchosporium secalis; [2])	inhibition at 50 µg/mL (Rhynchosporium secalis; [3])	inhibition at 50 µg/mL (Cladosporium sp.)	inhibition at 5 µg/mL (Fusarium oxysporum; [4])	inhibition at 50 µg/mL (Fusarium oxysporum; [5])	inhibition at 5 µg/mL (Alternaria alternata; [6])	inhibition at 50 µg/mL (Alternaria alternata; [7])	inhibition at 50 µg/mL (Curvularia sp.)	inhibition at 50 µg/mL (Coriolus versicolor)	inhibition at 50 µg/mL (Aureobasidium sp.)	inhibition at 5 µg/mL (Rhynchosporium secalis; [11])	inhibition at 50 µg/mL (Rhynchosporium secalis; [12])	inhibition at 5 µg/mL (Fusarium oxysporum; [13])	inhibition at 50 µg/mL (Fusarium oxysporum; [14])	inhibition at 5 µg/mL (Alternaria alternata; [15])	inhibition at 50 µg/mL (Alternaria alternata; [16])	inhibition at 5 µg/mL [1, 17]	inhibition at 50 µg/mL [1, 18]	inhibition at 5 µg/mL (Pyricularia oryzae; [19])	inhibition at 50 µg/mL (Pyricularia oryzae; [19])	further results
C[C@]1(CBr)CC[C@@H](Cc2ccc(F)cc2)[C@]1(O)Cn1cncn1 (racemic) [Compound I-601, (1RS,2SR,5SR)-2-bromomethyl-5-(4-fluorobenzyl)-2-methyl-1-(1H-1,2,4-triazol-1-ylmethyl)cyclopentanol]	> 80%	> 80%	60 to 80%	> 80%	> 80%	60 to 80%	> 80%	60 to 80%	60 to 80%	60 to 80%	–	–	–	–	–	–	–	–	–	–	inhibition at 5 µg/mL [1, 8]: 60 to 80%; inhibition at 50 µg/mL [1, 9]: > 80%; inhibition at 5 µg/mL (Pyricularia oryzae; [10]): > 80%; inhibition at 50 µg/mL (Pyricularia oryzae; [10]): > 80%
C[C@]1(CBr)CC[C@@H](Cc2ccc(Cl)cc2)[C@]1(O)Cn1cncn1 (racemic) [Compound I-25, (1RS,2SR,5SR)-2-bromomethyl-5-(4-chlorobenzyl)-2-methyl-1-(1H-1,2,4-triazol-1-ylmethyl)cyclopentanol]	–	–	60 to 80%	–	–	–	–	60 to 80%	60 to 80%	60 to 80%	> 80%	> 80%	> 80%	> 80%	60 to 80%	> 80%	40 to 60%	> 80%	> 80%	> 80%	–
CC(Cl)=C[C@@]1(C)CC[C@@H](Cc2ccc(Cl)cc2)[C@]1(O)Cn1cncn1 (racemic) [Compound I-15, (1RS,2RS,5SR)-5-(4-chlorobenzyl)-2-(2-chloropropenyl)-2-methyl-1-(1H-1,2,4-triazol-1-ylmethyl)cyclopentanol]	–	–	60 to 80%	–	–	–	–	60 to 80%	60 to 80%	60 to 80%	> 80%	> 80%	> 80%	> 80%	> 80%	> 80%	> 80%	> 80%	> 80%	> 80%	–
C[C@]1(CCl)CC[C@H](Cc2ccc(Cl)cc2)[C@]1(O)Cn1cncn1 (racemic) [Compound I-301, (1RS,2SR,5RS)-5-(4-chlorobenzyl)-2-chloromethyl-2-methyl-1-[1,2,4]triazol-1-ylmethylcyclopentanol]	> 80%	> 80%	60 to 80%	> 80%	> 80%	> 80%	> 80%	60 to 80%	60 to 80%	60 to 80%	–	–	–	–	–	–	–	–	–	–	inhibition at 5 µg/mL [1, 8]: > 80%; inhibition at 50 µg/mL [1, 9]: > 80%; inhibition at 5 µg/mL (Pyricularia oryzae; [10]): > 80%; inhibition at 50 µg/mL (Pyricularia oryzae; [10]): > 80%
C[C@@]1(CCCl)CC[C@@H](Cc2ccc(Cl)cc2)[C@]1(O)Cn1cncn1 (racemic) [Compound I-104, (1RS,2SR,5SR)-5-(4-chlorobenzyl)-2-(2-chloroethyl)-2-methyl-1-(1H-1,2,4-triazol-1-ylmethyl)cyclopentanol]	> 80%	> 80%	60 to 80%	> 80%	> 80%	> 80%	> 80%	60 to 80%	60 to 80%	60 to 80%	–	–	–	–	–	–	–	–	–	–	inhibition at 5 µg/mL [1, 8]: > 80%; inhibition at 50 µg/mL [1, 9]: > 80%; inhibition at 5 µg/mL (Pyricularia oryzae; [10]): > 80%; inhibition at 50 µg/mL (Pyricularia oryzae; [10]): > 80%
O[C@]1(Cn2cncn2)[C@H](Cc2ccc(Cl)cc2)CC[C@@H]1C(F)(F)F (racemic) [Compound I-65, (1RS,2SR,5SR)-5-(4-chlorobenzyl)-2-trifluoromethyl-1-(1H-1,2,4-triazol-1-ylmethyl)cyclopentanol]	–	–	60 to 80%	–	–	–	–	60 to 80%	60 to 80%	60 to 80%	40 to 60%	> 80%	40 to 60%	> 80%	40 to 60%	> 80%	40 to 60%	> 80%	40 to 60%	> 80%	–
C[C@]1(CCl)CC[C@@H](Cc2ccc(F)cc2)[C@]1(O)Cn1cncn1 (racemic) [Compound I-77, (1RS,2SR,5SR)-2-chloromethyl-5-(4-fluorobenzyl)-2-methyl-1-(1H-1,2,4-triazol-1-ylmethyl)cyclopentanol]	> 80%	> 80%	60 to 80%	> 80%	> 80%	> 80%	> 80%	60 to 80%	60 to 80%	60 to 80%	> 80%	> 80%	> 80%	> 80%	> 80%	> 80%	> 80%	> 80%	> 80%	> 80%	inhibition at 5 µg/mL [1, 8]: > 80%; inhibition at 50 µg/mL [1, 9]: > 80%; inhibition at 5 µg/mL (Pyricularia oryzae; [10]): > 80%; inhibition at 50 µg/mL (Pyricularia oryzae; [10]): > 80%
CC[C@]1(CCl)CC[C@@H](Cc2ccc(Cl)cc2)[C@]1(O)Cn1cncn1 (racemic) [Compound I-36, (1RS,2SR,5SR)-5-(4-chlorobenzyl)-2-chloromethyl-2-ethyl-1-(1H-1,2,4-triazol-1-ylmethyl)cyclopentanol]	–	–	60 to 80%	–	–	–	–	60 to 80%	60 to 80%	60 to 80%	> 80%	> 80%	> 80%	> 80%	> 80%	> 80%	> 80%	> 80%	> 80%	> 80%	–
C[C@]1(CCl)CC[C@@H](Cc2cccc(Cl)c2)[C@]1(O)Cn1cncn1 (racemic) [Compound I-74, (1RS,2SR,5SR)-5-(3-chlorobenzyl)-2-chloromethyl-2-methyl-1-(1H-1,2,4-triazol-1-ylmethyl)cyclopentanol]	–	–	60 to 80%	–	–	–	–	60 to 80%	60 to 80%	60 to 80%	> 80%	> 80%	> 80%	> 80%	60 to 80%	> 80%	> 80%	> 80%	> 80%	> 80%	–
